Reference: the supplement of paper PMC10307832

Experiments:
Experiment in all cases: relative viability (nuclei count vs DMSO), 5 days (fraction); higher = more cells survive
[1] = compound: CC1CC(=O)N(C2=CN=C(N=C2N1C3CCCC3)NC4=C(C=C(C=C4)C(=O)NC5CCN(CC5)C)OC)C [NPK76-II-72-1] + CC1(C)CCC(c2ccc(Cl)cc2)=C(CN2CCN(c3ccc(C(=O)NS(=O)(=O)c4ccc(N[C@H](CCN5CCOCC5)CSc5ccccc5)c(S(=O)(=O)C(F)(F)F)c4)cc3)CC2)C1 [Navitoclax] (partner 0.5 µM)
In short: (§1)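 Values are medians from duplicate plates. Each reflects relative viability, defined as the nuclei count of treated wells over that of vehicle wells. Lung cancer cell lines in 1536-well plates were pin-tool dosed one day after seeding with one drug alone or with a fixed anchor-drug dose plus five library-drug doses (not always all listed) in √10 steps, then fixed, stained and imaged at 4× after 5 days.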

[2] = compound: CC1CC(=O)N(C2=CN=C(N=C2N1C3CCCC3)NC4=C(C=C(C=C4)C(=O)NC5CCN(CC5)C)OC)C [NPK76-II-72-1] + CS(=O)(=O)CCNCc1ccc(-c2ccc3ncnc(Nc4ccc(OCc5cccc(F)c5)c(Cl)c4)c3c2)o1 [Lapatinib] (partner 2 µM)
In short: as §1

BI-2536 + Luminespib = compound: CC[C@@H]1C(=O)N(C)c2cnc(Nc3ccc(C(=O)NC4CCN(C)CC4)cc3OC)nc2N1C1CCCC1 [BI-2536] + CCNC(=O)c1noc(-c2cc(C(C)C)c(O)cc2O)c1-c1ccc(CN2CCOCC2)cc1 [Luminespib] (partner 0.01 µM)
In short: as §1

BI-2536 + Dasatinib = compound: CC[C@@H]1C(=O)N(C)c2cnc(Nc3ccc(C(=O)NC4CCN(C)CC4)cc3OC)nc2N1C1CCCC1 [BI-2536] + Cc1nc(Nc2ncc(C(=O)Nc3c(C)cccc3Cl)s2)cc(N2CCN(CCO)CC2)n1 [Dasatinib] (partner 0.075 µM)
In short: as §1

Cell Line: LXF-289
- relative viability ([1]; first compound 0.01 µM): 0.877
- relative viability ([1]; first compound 0.03162 µM): 0.964
- relative viability ([1]; first compound 0.1 µM): 0.954
- relative viability ([1]; first compound 0.3162 µM): 0.88
- relative viability ([1]; first compound 1 µM): 0.941
- relative viability ([2]; first compound 0.01 µM): 0.881
- relative viability ([2]; first compound 0.03162 µM): 0.91
- relative viability ([2]; first compound 0.1 µM): 0.891
- relative viability ([2]; first compound 0.3162 µM): 0.934
- relative viability ([2]; first compound 1 µM): 0.889
- relative viability (BI-2536 + Luminespib; first compound 0.01 µM): 0.624
- relative viability (BI-2536 + Luminespib; first compound 0.03162 µM): 0.533
- relative viability (BI-2536 + Luminespib; first compound 0.1 µM): 0.319
- relative viability (BI-2536 + Luminespib; first compound 0.3162 µM): 0.0739
- relative viability (BI-2536 + Luminespib; first compound 1 µM): 0.0875
- relative viability (BI-2536 + Dasatinib; first compound 0.01 µM): 0.274
- relative viability (BI-2536 + Dasatinib; first compound 0.03162 µM): 0.235
- relative viability (BI-2536 + Dasatinib; first compound 0.1 µM): 0.0786
- relative viability (BI-2536 + Dasatinib; first compound 0.3162 µM): 0.047
- relative viability (BI-2536 + Dasatinib; first compound 1 µM): 0.0368

Cell Line: PC-14
- relative viability ([1]; first compound 0.01 µM): 1
- relative viability ([1]; first compound 0.03162 µM): 1.06
- relative viability ([1]; first compound 0.1 µM): 1.03
- relative viability ([1]; first compound 0.3162 µM): 0.948
- relative viability ([1]; first compound 1 µM): 1.07
- relative viability ([2]; first compound 0.01 µM): 0.321
- relative viability ([2]; first compound 0.03162 µM): 0.269
- relative viability ([2]; first compound 0.1 µM): 0.28
- relative viability ([2]; first compound 0.3162 µM): 0.301
- relative viability ([2]; first compound 1 µM): 0.338
- relative viability (BI-2536 + Luminespib; first compound 0.01 µM): 0.116
- relative viability (BI-2536 + Luminespib; first compound 0.03162 µM): 0.171
- relative viability (BI-2536 + Luminespib; first compound 0.1 µM): 0.111
- relative viability (BI-2536 + Luminespib; first compound 0.3162 µM): 0.107
- relative viability (BI-2536 + Luminespib; first compound 1 µM): 0.108
- relative viability (BI-2536 + Dasatinib; first compound 0.01 µM): 0.269
- relative viability (BI-2536 + Dasatinib; first compound 0.1 µM): 0.0367
- relative viability (BI-2536 + Dasatinib; first compound 0.3162 µM): 0.0318
- relative viability (BI-2536 + Dasatinib; first compound 1 µM): 0.0158

Cell Line: NCI-H1666
- relative viability ([1]; first compound 0.01 µM): 0.917
- relative viability ([1]; first compound 0.03162 µM): 0.858
- relative viability ([1]; first compound 0.1 µM): 0.961
- relative viability ([1]; first compound 0.3162 µM): 0.722
- relative viability ([1]; first compound 1 µM): 1.06
- relative viability ([2]; first compound 0.01 µM): 0.515
- relative viability ([2]; first compound 0.03162 µM): 0.653
- relative viability ([2]; first compound 0.1 µM): 0.789
- relative viability ([2]; first compound 0.3162 µM): 0.58
- relative viability ([2]; first compound 1 µM): 0.788
- relative viability (BI-2536 + Luminespib; first compound 0.01 µM): 1.01
- relative viability (BI-2536 + Luminespib; first compound 0.03162 µM): 0.933
- relative viability (BI-2536 + Luminespib; first compound 0.1 µM): 0.866
- relative viability (BI-2536 + Luminespib; first compound 0.3162 µM): 0.382
- relative viability (BI-2536 + Luminespib; first compound 1 µM): 0.34
- relative viability (BI-2536 + Dasatinib; first compound 0.01 µM): 0.765
- relative viability (BI-2536 + Dasatinib; first compound 0.03162 µM): 0.653
- relative viability (BI-2536 + Dasatinib; first compound 0.1 µM): 0.716
- relative viability (BI-2536 + Dasatinib; first compound 0.3162 µM): 0.313
- relative viability (BI-2536 + Dasatinib; first compound 1 µM): 0.267

Cell Line: NCI-H2085
- relative viability ([1]; first compound 0.01 µM): 1.11
- relative viability ([1]; first compound 0.03162 µM): 1.12
- relative viability ([1]; first compound 0.1 µM): 1.06
- relative viability ([1]; first compound 0.3162 µM): 1.06
- relative viability ([1]; first compound 1 µM): 1.19
- relative viability ([2]; first compound 0.01 µM): 0.748
- relative viability ([2]; first compound 0.03162 µM): 0.735
- relative viability ([2]; first compound 0.1 µM): 0.763
- relative viability ([2]; first compound 0.3162 µM): 0.714
- relative viability ([2]; first compound 1 µM): 0.78
- relative viability (BI-2536 + Luminespib; first compound 0.01 µM): 0.396
- relative viability (BI-2536 + Luminespib; first compound 0.03162 µM): 0.5
- relative viability (BI-2536 + Luminespib; first compound 0.1 µM): 0.384
- relative viability (BI-2536 + Luminespib; first compound 0.3162 µM): 0.29
- relative viability (BI-2536 + Luminespib; first compound 1 µM): 0.262
- relative viability (BI-2536 + Dasatinib; first compound 0.01 µM): 0.26
- relative viability (BI-2536 + Dasatinib; first compound 0.03162 µM): 0.232
- relative viability (BI-2536 + Dasatinib; first compound 0.1 µM): 0.232
- relative viability (BI-2536 + Dasatinib; first compound 0.3162 µM): 0.157
- relative viability (BI-2536 + Dasatinib; first compound 1 µM): 0.19
